According to the supplement of paper PMC10307832:

What was measured:
Assay in all cases: relative viability (nuclei count vs DMSO), 5 days (fraction); higher = more cells survive
[1] = system: 201T
How it was run: (§1)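 Relative viability equals treated-well nuclei counts divided by vehicle-well nuclei counts. Counts came from 4× images of lung cancer cell lines grown in 1536-well plates for 5 days after pin-tool dosing on the day after seeding. Dosing used one drug alone or a fixed anchor-drug dose plus five library-drug doses (not always all listed) in √10 steps, and values are medians of duplicate plates.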

[2] = system: BEN
How it was run: as §1

[3] = system: COR-L 105
How it was run: as §1

[4] = system: EKVX
How it was run: as §1

[5] = system: EPLC-272H
How it was run: as §1

[6] = system: H3255
How it was run: as §1

[7] = system: HCC-44
How it was run: as §1

[8] = system: HCC-827
How it was run: as §1

[9] = system: HOP-62
How it was run: as §1

[10] = system: LCLC-97TM1
How it was run: as §1

[11] = system: LOU-NH91
How it was run: as §1

[12] = system: LU99A
How it was run: as §1

[13] = system: NCI-H1395
How it was run: as §1

[14] = system: NCI-H1437
How it was run: as §1

[15] = system: NCI-H1666
How it was run: as §1

[16] = system: NCI-H1975
How it was run: as §1

[17] = system: NCI-H2085
How it was run: as §1

[18] = system: NCI-H2087
How it was run: as §1

[19] = system: NCI-H2126
How it was run: as §1

[20] = system: NCI-H358
How it was run: as §1

[21] = system: NCI-H647
How it was run: as §1

[22] = system: PC-3 [JPC-3]
How it was run: as §1

[23] = system: SW 1573
How it was run: as §1

## COc1cc(N2CCC(C(N)=O)CC2)ccc1Nc1nc(N)c(Cl)c(Nc2ccccc2S(=O)(=O)C(C)C)n1 [HG-5-88-01] + CS(=O)(=O)N1CCN(Cc2cc3nc(-c4cccc5[nH]ncc45)nc(N4CCOCC4)c3s2)CC1 [Pictilisib] (partner 1 µM)
[1]; first compound 0.04 µM
  relative viability: 0.71
[1]; first compound 0.1265 µM
  relative viability: 0.64
[1]; first compound 0.4 µM
  relative viability: 0.649
[1]; first compound 1.265 µM
  relative viability: 0.729
[1]; first compound 4 µM
  relative viability: 0.739
[2]; first compound 0.04 µM
  relative viability: 0.504
[2]; first compound 0.1265 µM
  relative viability: 0.523
[2]; first compound 0.4 µM
  relative viability: 0.544
[2]; first compound 1.265 µM
  relative viability: 0.468
[2]; first compound 4 µM
  relative viability: 0.447
[3]; first compound 0.04 µM
  relative viability: 0.348
[3]; first compound 0.1265 µM
  relative viability: 0.537
[3]; first compound 0.4 µM
  relative viability: 0.336
[3]; first compound 1.265 µM
  relative viability: 0.309
[3]; first compound 4 µM
  relative viability: 0.342
[4]; first compound 0.04 µM
  relative viability: 0.444
[4]; first compound 0.1265 µM
  relative viability: 0.426
[4]; first compound 0.4 µM
  relative viability: 0.372
[4]; first compound 4 µM
  relative viability: 0.355
[5]; first compound 0.04 µM
  relative viability: 0.302
[5]; first compound 0.1265 µM
  relative viability: 0.262
[5]; first compound 0.4 µM
  relative viability: 0.29
[5]; first compound 1.265 µM
  relative viability: 0.219
[5]; first compound 4 µM
  relative viability: 0.0916
[6]; first compound 0.04 µM
  relative viability: 0.479
[6]; first compound 0.1265 µM
  relative viability: 0.484
[6]; first compound 0.4 µM
  relative viability: 0.449
[6]; first compound 4 µM
  relative viability: 0.317
[7]; first compound 0.04 µM
  relative viability: 0.695
[7]; first compound 0.1265 µM
  relative viability: 0.569
[7]; first compound 0.4 µM
  relative viability: 0.542
[7]; first compound 1.265 µM
  relative viability: 0.519
[7]; first compound 4 µM
  relative viability: 0.375
[8]; first compound 0.04 µM
  relative viability: 1.02
[8]; first compound 0.1265 µM
  relative viability: 0.931
[8]; first compound 0.4 µM
  relative viability: 0.924
[8]; first compound 1.265 µM
  relative viability: 0.552
[8]; first compound 4 µM
  relative viability: 0.56
[9]; first compound 0.04 µM
  relative viability: 0.493
[9]; first compound 0.1265 µM
  relative viability: 0.765
[9]; first compound 0.4 µM
  relative viability: 0.827
[9]; first compound 1.265 µM
  relative viability: 0.892
[9]; first compound 4 µM
  relative viability: 0.936
[10]; first compound 0.04 µM
  relative viability: 0.156
[10]; first compound 0.1265 µM
  relative viability: 0.185
[10]; first compound 0.4 µM
  relative viability: 0.146
[10]; first compound 1.265 µM
  relative viability: 0.213
[10]; first compound 4 µM
  relative viability: 0.135
[11]; first compound 0.04 µM
  relative viability: 0.495
[11]; first compound 0.1265 µM
  relative viability: 0.514
[11]; first compound 0.4 µM
  relative viability: 0.513
[11]; first compound 1.265 µM
  relative viability: 0.482
[11]; first compound 4 µM
  relative viability: 0.401
[12]; first compound 0.04 µM
  relative viability: 0.31
[12]; first compound 0.1265 µM
  relative viability: 0.315
[12]; first compound 0.4 µM
  relative viability: 0.303
[12]; first compound 1.265 µM
  relative viability: 0.318
[12]; first compound 4 µM
  relative viability: 0.215
[13]; first compound 0.04 µM
  relative viability: 0.582
[13]; first compound 0.1265 µM
  relative viability: 0.587
[13]; first compound 0.4 µM
  relative viability: 0.598
[13]; first compound 1.265 µM
  relative viability: 0.584
[13]; first compound 4 µM
  relative viability: 0.523
[14]; first compound 0.04 µM
  relative viability: 0.519
[14]; first compound 0.1265 µM
  relative viability: 0.431
[14]; first compound 0.4 µM
  relative viability: 0.436
[14]; first compound 1.265 µM
  relative viability: 0.416
[14]; first compound 4 µM
  relative viability: 0.264
[15]; first compound 0.04 µM
  relative viability: 0.503
[15]; first compound 0.1265 µM
  relative viability: 0.43
[15]; first compound 0.4 µM
  relative viability: 0.467
[15]; first compound 1.265 µM
  relative viability: 0.476
[15]; first compound 4 µM
  relative viability: 0.34
[16]; first compound 0.04 µM
  relative viability: 0.32
[16]; first compound 0.1265 µM
  relative viability: 0.277
[16]; first compound 0.4 µM
  relative viability: 0.244
[16]; first compound 1.265 µM
  relative viability: 0.191
[16]; first compound 4 µM
  relative viability: 0.17
[17]; first compound 0.04 µM
  relative viability: 0.478
[17]; first compound 0.1265 µM
  relative viability: 0.457
[17]; first compound 0.4 µM
  relative viability: 0.525
[17]; first compound 1.265 µM
  relative viability: 0.414
[17]; first compound 4 µM
  relative viability: 0.442
[18]; first compound 0.04 µM
  relative viability: 0.835
[18]; first compound 0.1265 µM
  relative viability: 1.08
[18]; first compound 0.4 µM
  relative viability: 0.928
[18]; first compound 1.265 µM
  relative viability: 0.771
[18]; first compound 4 µM
  relative viability: 0.9
[19]; first compound 0.04 µM
  relative viability: 0.419
[19]; first compound 0.1265 µM
  relative viability: 0.435
[19]; first compound 0.4 µM
  relative viability: 0.513
[19]; first compound 1.265 µM
  relative viability: 0.501
[19]; first compound 4 µM
  relative viability: 0.38
[20]; first compound 0.04 µM
  relative viability: 0.292
[20]; first compound 0.1265 µM
  relative viability: 0.384
[20]; first compound 0.4 µM
  relative viability: 0.302
[20]; first compound 1.265 µM
  relative viability: 0.225
[20]; first compound 4 µM
  relative viability: 0.301
[21]; first compound 0.04 µM
  relative viability: 0.342
[21]; first compound 0.1265 µM
  relative viability: 0.407
[21]; first compound 0.4 µM
  relative viability: 0.453
[21]; first compound 1.265 µM
  relative viability: 0.371
[21]; first compound 4 µM
  relative viability: 0.443
[22]; first compound 0.04 µM
  relative viability: 0.69
[22]; first compound 0.1265 µM
  relative viability: 0.702
[22]; first compound 0.4 µM
  relative viability: 0.636
[22]; first compound 1.265 µM
  relative viability: 0.494
[22]; first compound 4 µM
  relative viability: 0.266
[23]; first compound 0.04 µM
  relative viability: 0.422
[23]; first compound 0.1265 µM
  relative viability: 0.563
[23]; first compound 0.4 µM
  relative viability: 0.445
[23]; first compound 1.265 µM
  relative viability: 0.392
[23]; first compound 4 µM
  relative viability: 0.489
